Data from ChEMBL document CHEMBL2331439 (J Med Chem, 2013).

What was measured:
[1] = target: MAP kinase-activated protein kinase 2 (Homo sapiens, UniProt P49137); assay: Inhibition of recombinant MAPKAPK2 (unknown origin) by FRET-based Z'-LYTE assay
[2] = target: Mitogen-activated protein kinase 14 (Homo sapiens, UniProt Q16539); assay: Inhibition of recombinant MAPK14 (unknown origin) by FRET-based Z'-LYTE assay
[3] = target: Mitogen-activated protein kinase 1 (Homo sapiens, UniProt P28482); assay: Inhibition of recombinant ERK2 (unknown origin) by FRET-based Z'-LYTE assay
Sequence of Mitogen-activated protein kinase 1 (P28482 whole entry): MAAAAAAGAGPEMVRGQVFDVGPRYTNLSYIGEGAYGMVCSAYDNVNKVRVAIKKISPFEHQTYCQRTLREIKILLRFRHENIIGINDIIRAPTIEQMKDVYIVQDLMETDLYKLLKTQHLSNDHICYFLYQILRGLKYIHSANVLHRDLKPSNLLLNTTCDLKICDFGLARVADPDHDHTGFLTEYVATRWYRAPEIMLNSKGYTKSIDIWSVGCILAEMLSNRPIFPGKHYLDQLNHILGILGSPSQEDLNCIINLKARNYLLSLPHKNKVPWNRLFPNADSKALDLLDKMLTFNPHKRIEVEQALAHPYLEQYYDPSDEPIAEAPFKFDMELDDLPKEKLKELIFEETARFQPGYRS

[4] = target: RAF proto-oncogene serine/threonine-protein kinase (Homo sapiens, UniProt P04049); assay: Inhibition of recombinant RAF1 (unknown origin) by cascade reaction assay
Sequence of RAF proto-oncogene serine/threonine-protein kinase (P04049 whole entry): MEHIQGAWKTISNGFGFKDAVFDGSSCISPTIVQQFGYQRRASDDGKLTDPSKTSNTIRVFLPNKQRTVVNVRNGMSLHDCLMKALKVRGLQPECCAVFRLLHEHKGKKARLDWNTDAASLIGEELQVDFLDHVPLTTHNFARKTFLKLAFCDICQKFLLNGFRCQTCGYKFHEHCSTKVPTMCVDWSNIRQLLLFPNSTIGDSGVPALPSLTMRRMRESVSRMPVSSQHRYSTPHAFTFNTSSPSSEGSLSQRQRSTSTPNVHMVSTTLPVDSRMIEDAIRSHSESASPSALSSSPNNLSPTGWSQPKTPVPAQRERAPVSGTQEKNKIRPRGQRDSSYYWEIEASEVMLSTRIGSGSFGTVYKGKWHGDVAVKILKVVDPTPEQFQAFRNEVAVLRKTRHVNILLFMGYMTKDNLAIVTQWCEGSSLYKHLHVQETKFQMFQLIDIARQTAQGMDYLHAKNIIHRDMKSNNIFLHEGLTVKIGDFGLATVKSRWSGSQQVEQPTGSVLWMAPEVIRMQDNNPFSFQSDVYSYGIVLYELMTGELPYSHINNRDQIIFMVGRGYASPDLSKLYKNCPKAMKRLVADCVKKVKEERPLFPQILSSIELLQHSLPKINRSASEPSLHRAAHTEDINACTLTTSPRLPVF

[5] = target: Ribosomal protein S6 kinase beta-1 (Homo sapiens, UniProt P23443); assay: Inhibition of recombinant RPS6K1 (unknown origin) by FRET-based Z'-LYTE assay
Sequence of Ribosomal protein S6 kinase beta-1 (P23443 whole entry): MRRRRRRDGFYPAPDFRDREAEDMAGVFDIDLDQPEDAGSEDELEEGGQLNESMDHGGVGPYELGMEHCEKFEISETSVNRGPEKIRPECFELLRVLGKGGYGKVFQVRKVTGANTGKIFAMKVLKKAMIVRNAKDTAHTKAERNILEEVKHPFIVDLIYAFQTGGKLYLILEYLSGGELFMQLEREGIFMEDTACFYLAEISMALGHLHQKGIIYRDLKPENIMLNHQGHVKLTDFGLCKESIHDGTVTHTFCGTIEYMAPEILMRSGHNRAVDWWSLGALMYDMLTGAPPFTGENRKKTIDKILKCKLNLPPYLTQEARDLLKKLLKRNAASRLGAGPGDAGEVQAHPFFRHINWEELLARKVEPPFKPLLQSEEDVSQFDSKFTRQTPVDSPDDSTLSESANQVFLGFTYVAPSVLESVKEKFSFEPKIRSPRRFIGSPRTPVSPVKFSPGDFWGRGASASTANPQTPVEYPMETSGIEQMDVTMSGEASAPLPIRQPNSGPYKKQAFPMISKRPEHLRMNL

[6] = target: RAC-beta serine/threonine-protein kinase (Homo sapiens, UniProt P31751); assay: Inhibition of recombinant AKT2 (unknown origin) by FRET-based Z'-LYTE assay
Sequence of RAC-beta serine/threonine-protein kinase (P31751 whole entry): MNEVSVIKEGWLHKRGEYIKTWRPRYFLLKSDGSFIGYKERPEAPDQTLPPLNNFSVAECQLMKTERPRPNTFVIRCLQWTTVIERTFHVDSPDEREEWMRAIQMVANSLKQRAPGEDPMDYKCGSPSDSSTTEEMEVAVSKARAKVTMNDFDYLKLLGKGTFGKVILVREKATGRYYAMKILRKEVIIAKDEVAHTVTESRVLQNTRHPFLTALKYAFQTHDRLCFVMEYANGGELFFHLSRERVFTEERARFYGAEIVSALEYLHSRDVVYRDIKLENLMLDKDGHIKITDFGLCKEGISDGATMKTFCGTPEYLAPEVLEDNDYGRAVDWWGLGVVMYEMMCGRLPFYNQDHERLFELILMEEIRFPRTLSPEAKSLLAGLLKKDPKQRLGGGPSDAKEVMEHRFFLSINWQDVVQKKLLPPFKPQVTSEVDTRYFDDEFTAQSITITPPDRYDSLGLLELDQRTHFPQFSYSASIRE

[7] = target: T1, Inhibitor of nuclear factor kappa-B kinase subunit beta (Homo sapiens, UniProt O14920); assay: Inhibition of recombinant IKBKB (unknown origin) by FRET-based Z'-LYTE assay
T1 sequence (O14920 whole entry): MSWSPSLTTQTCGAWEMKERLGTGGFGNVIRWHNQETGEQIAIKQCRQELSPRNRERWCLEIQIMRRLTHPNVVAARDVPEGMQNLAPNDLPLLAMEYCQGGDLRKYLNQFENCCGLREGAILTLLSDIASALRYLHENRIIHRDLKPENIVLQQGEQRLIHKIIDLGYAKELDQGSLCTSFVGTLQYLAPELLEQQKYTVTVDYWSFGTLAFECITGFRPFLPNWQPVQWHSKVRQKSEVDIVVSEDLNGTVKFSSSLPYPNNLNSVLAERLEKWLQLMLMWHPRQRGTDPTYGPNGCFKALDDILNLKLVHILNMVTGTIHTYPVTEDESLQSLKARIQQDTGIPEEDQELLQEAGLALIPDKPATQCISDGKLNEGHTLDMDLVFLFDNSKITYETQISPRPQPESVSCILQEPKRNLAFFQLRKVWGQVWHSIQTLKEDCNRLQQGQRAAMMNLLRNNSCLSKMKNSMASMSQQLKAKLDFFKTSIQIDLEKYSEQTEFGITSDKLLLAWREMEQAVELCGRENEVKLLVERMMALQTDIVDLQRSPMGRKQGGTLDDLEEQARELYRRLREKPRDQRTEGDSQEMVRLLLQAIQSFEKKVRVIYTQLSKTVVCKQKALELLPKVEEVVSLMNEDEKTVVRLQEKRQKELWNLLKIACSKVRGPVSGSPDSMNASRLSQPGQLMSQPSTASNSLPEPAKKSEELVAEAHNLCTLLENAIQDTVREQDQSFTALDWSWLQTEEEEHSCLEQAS

[8] = target: Vascular endothelial growth factor receptor 2 (Homo sapiens, UniProt P35968); assay: Inhibition of recombinant KDR (unknown origin) by FRET-based Z'-LYTE assay
[9] = target: T2, Serine/threonine-protein kinase Nek1 (Homo sapiens, UniProt Q96PY6); assay: Inhibition of recombinant NEK1 (unknown origin) by FRET-based Z'-LYTE assay
T2 sequence (Q96PY6 whole entry): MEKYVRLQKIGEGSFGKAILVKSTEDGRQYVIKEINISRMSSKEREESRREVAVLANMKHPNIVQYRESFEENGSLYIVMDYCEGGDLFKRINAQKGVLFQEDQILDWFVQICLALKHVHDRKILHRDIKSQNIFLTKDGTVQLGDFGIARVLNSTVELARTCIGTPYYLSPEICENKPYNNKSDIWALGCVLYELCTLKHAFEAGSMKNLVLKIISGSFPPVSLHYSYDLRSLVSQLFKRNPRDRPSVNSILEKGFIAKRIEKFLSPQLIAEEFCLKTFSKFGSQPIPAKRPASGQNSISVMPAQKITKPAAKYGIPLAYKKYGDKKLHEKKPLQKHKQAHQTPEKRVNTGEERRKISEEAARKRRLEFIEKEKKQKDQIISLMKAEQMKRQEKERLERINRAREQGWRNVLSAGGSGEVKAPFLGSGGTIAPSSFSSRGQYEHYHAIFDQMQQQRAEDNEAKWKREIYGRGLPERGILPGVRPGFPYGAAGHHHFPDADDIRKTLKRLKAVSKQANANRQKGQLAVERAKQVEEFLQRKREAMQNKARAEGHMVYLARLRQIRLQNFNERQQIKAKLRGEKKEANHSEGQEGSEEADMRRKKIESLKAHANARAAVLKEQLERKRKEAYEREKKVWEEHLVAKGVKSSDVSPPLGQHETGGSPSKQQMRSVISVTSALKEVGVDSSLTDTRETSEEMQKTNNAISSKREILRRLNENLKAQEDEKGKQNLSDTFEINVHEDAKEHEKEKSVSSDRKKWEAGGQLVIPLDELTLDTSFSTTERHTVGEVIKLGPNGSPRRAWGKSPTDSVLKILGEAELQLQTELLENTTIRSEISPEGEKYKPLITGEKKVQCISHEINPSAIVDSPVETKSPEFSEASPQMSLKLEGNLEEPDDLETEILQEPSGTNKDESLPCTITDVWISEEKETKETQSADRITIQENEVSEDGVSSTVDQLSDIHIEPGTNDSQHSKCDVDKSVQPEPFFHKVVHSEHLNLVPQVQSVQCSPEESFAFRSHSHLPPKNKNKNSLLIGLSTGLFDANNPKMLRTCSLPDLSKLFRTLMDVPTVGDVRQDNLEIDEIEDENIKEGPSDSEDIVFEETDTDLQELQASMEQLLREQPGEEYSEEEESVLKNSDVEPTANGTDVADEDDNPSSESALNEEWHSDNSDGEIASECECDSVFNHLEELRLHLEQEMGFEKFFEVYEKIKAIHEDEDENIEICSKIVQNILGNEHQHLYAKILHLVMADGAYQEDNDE

[10] = target: Dual specificity mitogen-activated protein kinase kinase 1 (Homo sapiens, UniProt Q02750); assay: Inhibition of recombinant MEK1 (unknown origin) by cascade reaction assay
Sequence of Dual specificity mitogen-activated protein kinase kinase 1 (Q02750 whole entry): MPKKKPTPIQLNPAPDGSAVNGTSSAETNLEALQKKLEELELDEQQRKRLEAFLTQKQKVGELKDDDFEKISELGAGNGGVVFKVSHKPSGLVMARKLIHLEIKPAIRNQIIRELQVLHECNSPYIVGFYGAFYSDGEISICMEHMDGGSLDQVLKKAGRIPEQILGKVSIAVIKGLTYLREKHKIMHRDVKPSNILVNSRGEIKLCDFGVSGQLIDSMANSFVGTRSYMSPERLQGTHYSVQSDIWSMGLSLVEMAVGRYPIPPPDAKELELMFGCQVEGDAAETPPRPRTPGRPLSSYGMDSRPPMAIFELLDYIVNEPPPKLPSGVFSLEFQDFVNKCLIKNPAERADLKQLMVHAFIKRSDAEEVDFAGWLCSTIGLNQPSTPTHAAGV

[11] = target: AMP-activated protein kinase (AMPK) alpha-1/beta-1/gamma-1 (Homo sapiens, UniProt P54619+Q13131+Q9Y478); assay: Inhibition of recombinant AMPK A1/B1/G1 (unknown origin) by FRET-based Z'-LYTE assay; assay type: protein-complex assay
Sequence of AMP-activated protein kinase (AMPK) alpha-1/beta-1/gamma-1 (P54619 whole entry): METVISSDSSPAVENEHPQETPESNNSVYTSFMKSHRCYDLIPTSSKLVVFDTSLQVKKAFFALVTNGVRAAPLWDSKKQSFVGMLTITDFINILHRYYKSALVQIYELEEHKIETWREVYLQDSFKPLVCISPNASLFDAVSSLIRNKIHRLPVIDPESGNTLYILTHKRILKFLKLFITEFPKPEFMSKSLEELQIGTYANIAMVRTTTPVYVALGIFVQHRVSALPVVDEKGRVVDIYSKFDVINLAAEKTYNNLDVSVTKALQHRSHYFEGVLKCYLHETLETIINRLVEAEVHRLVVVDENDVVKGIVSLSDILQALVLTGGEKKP
Sequence of AMP-activated protein kinase (AMPK) alpha-1/beta-1/gamma-1 (Q9Y478 whole entry): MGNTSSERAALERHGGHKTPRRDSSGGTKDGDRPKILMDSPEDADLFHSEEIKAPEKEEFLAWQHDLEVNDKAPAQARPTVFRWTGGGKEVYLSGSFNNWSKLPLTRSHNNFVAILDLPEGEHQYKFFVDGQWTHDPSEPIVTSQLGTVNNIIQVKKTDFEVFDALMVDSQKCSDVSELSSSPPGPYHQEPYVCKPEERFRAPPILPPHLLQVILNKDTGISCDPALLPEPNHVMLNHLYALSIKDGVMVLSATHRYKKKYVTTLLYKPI
Sequence of AMP-activated protein kinase (AMPK) alpha-1/beta-1/gamma-1 (Q13131 whole entry): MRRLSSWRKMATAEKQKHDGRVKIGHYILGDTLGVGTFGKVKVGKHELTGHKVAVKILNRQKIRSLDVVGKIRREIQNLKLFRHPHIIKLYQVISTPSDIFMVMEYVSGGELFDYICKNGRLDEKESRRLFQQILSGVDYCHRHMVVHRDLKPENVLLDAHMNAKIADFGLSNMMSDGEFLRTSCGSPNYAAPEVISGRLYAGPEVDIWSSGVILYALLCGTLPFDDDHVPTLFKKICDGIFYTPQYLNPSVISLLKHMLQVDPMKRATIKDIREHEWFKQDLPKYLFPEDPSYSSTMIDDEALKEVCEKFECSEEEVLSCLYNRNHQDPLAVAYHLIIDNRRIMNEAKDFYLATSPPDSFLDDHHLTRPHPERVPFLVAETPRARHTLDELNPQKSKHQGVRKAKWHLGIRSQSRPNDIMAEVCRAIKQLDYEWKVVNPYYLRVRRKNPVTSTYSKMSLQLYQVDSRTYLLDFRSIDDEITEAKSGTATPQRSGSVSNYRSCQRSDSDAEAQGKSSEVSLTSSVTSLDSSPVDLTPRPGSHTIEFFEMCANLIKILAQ

[12] = target: RAC-alpha serine/threonine-protein kinase (Homo sapiens, UniProt P31749); assay: Inhibition of recombinant AKT1 (unknown origin) by FRET-based Z'-LYTE assay
Sequence of RAC-alpha serine/threonine-protein kinase (P31749 whole entry): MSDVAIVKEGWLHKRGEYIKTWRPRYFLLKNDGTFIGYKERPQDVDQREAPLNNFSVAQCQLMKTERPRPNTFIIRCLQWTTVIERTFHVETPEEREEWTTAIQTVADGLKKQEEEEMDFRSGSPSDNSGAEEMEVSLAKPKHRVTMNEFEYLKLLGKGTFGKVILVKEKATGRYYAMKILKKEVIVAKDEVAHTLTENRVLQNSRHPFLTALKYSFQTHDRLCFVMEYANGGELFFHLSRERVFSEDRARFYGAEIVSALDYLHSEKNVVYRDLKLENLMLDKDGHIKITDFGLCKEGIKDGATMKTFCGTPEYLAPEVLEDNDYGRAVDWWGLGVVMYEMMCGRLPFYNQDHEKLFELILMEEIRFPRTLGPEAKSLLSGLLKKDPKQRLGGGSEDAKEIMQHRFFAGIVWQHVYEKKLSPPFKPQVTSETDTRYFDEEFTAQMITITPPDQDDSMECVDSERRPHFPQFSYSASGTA

Sequence of MAP kinase-activated protein kinase 2 (P49137 whole entry): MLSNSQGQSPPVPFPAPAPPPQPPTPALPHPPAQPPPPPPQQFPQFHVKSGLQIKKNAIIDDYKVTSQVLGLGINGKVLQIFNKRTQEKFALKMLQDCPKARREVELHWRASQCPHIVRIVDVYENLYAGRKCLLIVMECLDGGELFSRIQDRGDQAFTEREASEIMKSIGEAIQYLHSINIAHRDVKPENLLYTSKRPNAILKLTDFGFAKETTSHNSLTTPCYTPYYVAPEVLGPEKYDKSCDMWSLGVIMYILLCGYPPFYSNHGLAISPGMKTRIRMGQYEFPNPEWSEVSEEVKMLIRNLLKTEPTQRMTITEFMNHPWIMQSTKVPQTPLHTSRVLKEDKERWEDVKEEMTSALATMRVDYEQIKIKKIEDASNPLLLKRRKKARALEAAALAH
Sequence of Mitogen-activated protein kinase 14 (Q16539 whole entry): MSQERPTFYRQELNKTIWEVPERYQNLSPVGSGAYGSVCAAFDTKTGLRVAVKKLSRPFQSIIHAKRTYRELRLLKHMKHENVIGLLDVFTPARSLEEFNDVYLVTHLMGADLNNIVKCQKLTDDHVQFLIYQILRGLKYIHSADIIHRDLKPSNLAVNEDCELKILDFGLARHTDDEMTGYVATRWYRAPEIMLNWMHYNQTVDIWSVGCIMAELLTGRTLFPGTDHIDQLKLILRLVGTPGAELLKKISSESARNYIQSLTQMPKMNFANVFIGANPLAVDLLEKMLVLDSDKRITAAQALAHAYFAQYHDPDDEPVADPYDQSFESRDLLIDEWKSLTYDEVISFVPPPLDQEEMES

Structure (SMILES)	IC50 [1] [µM]	IC50 [2] [µM]	IC50 [3] [µM]	IC50 [4] [µM]	IC50 [5] [µM]	IC50 [6] [µM]	IC50 [7] [µM]	IC50 [8] [µM]	IC50 [9] [µM]	IC50 [10] [µM]	IC50 [11] [µM]	IC50 [12] [µM]
CN1C/C(=C\c2ccccn2)C(=O)[C@H](Cc2ccccn2)C1	> 100	> 100	> 100	> 100	> 100	> 100	15					
CN1C/C(=C\c2ccccn2)C(=O)[C@@H](Cc2ccccn2)C1	> 100	> 100	> 100	> 100	> 100	> 100	15					
CN1C/C(=C\c2ccccn2)C(=O)/C(=C/c2ccccn2)C1	9.8	> 100	27		6	1.9	4	1.3	3.5	9	2.5	2.6
O=C1/C(=C/c2ccccn2)CSC/C1=C\c1ccccn1	16	> 100	20	8.5	12	3.3	34	6.5	14	30	26	3.6
